Test results: patent EP0013144A1, “Substituted diphenylamine derivatives, compositions and herbicidal uses thereof, and processes for their preparation” (ICI AUSTRALIA LIMITED, priority 1978, dated 1980)

Experiments:
Format in all cases: in vivo
Rape = assay: Pre-emergence herbicidal test, fibre trays (Example 33); settings: 2.0 kg/ha, after 21 days
Method in brief: (§1)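 Two spray tests: pots of young plants (post-emergence, 14-day assessment) and fibre trays of freshly sown seed with sprayed soil surface topped by a thin fresh soil layer (pre-emergence, 21-day assessment). Injury was graded 0–5 against untreated controls, 5 meaning complete kill.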

Soy bean [1] = assay: as above; settings: 2.0 kg/ha, after 21 days
Method in brief: as §1

Sugar beet [2] = assay: as above; settings: 2.0 kg/ha, after 21 days
Method in brief: as §1

Cotton [3] = assay: as above; settings: 2.0 kg/ha, after 21 days
Method in brief: as §1

Winter wheat [4] = assay: as above; settings: 2.0 kg/ha, after 21 days
Method in brief: as §1

Maize = assay: as above; set-up: key: 0 = 0-20% damage, 5 = complete kill, vs untreated control; settings: 2.0 kg/ha, after 21 days
Method in brief: as §1

Mustard = assay: Post-emergence herbicidal activity (Example 32); settings: 3 weeks after spraying
Method in brief: (§2)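 Compounds were formulated as emulsifiable concentrates in toluene with surfactants (oils, waxy solids) or ball-milled aqueous suspensions (crystalline solids), then diluted with water. Glasshouse seedlings in soil, grown to about 10 to 12.5 cm, were sprayed. Damage was scored visually after 3 weeks against untreated controls on a 0–3 scale (3+ = 100% kill).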

Sunflower = assay: Post-emergence herbicidal activity (Example 32); settings: 3 weeks after spraying
Method in brief: as §2

Ryegrass [5] = assay: Post-emergence herbicidal activity (Example 32); settings: 3 weeks after spraying
Method in brief: as §2

Japanese millet = assay: Post-emergence herbicidal activity (Example 32); settings: 3 weeks after spraying
Method in brief: as §2

Ipomea = assay: Post-emergence herbicidal activity (Example 32); settings: 3 weeks after spraying
Method in brief: as §2

Winter wheat [6] = assay: Post-emergence herbicidal test, young pot plants (Example 33); set-up: key: 0 = 0-20% damage, 5 = complete kill, vs untreated control; settings: 2.0 kg/ha, after 14 days
Method in brief: as §1

Wheat = assay: Post-emergence herbicidal activity (Example 32); set-up: key: 0-3 scale: 0 = 0-25% damage, 3 = 75-99% kill, 3+ = 100% kill; settings: 3 weeks after spraying
Method in brief: as §2

Soy bean [7] = assay: Post-emergence herbicidal test, young pot plants (Example 33); settings: 2.0 kg/ha, after 14 days
Method in brief: as §1

Sugar beet [8] = assay: as above; settings: 2.0 kg/ha, after 14 days
Method in brief: as §1

Cotton [9] = assay: as above; settings: 2.0 kg/ha, after 14 days
Method in brief: as §1

Chenopodium album = assay: as above; settings: 2.0 kg/ha, after 14 days
Method in brief: as §1

Ipomea purpurea = assay: as above; settings: 2.0 kg/ha, after 14 days
Method in brief: as §1

Amaranthus retroflexus = assay: as above; settings: 2.0 kg/ha, after 14 days
Method in brief: as §1

Rice = assay: Pre-emergence herbicidal test, fibre trays (Example 33); set-up: key: 0 is 0 to 20% damage; 5 is complete kill; settings: 2.0 kg/ha, after 21 days
Method in brief: as §1

Ryegrass [10] = assay: Pre-emergence herbicidal activity (Example 31); set-up: key: 0-3 scale: 0 = 0-25% damage, 3 = 75-99% kill, 3+ = 100% kill; settings: after three weeks
Method in brief: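 Ratings run from 0 (0–25% damage) to 3 (75–99% kill), with 3+ meaning complete kill, assessed visually three weeks after spraying. Treatment was applied to soil right after sowing, before germination was triggered by overhead watering in the glasshouse.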

| SMILES | herbicidal damage, Rp (Rape) | herbicidal damage, Sy (Soy bean [1]) | herbicidal damage, Sb (Sugar beet [2]) | herbicidal damage, Ct (Cotton [3]) | herbicidal damage, Ww (Winter wheat [4]) | herbicidal damage, Mz (Maize) | damage to plants, Ms (Mustard; 1 kg/ha) | damage to plants, Ms (Mustard; 5 kg/ha) | damage to plants, Sf (Sunflower; 1 kg/ha) | damage to plants, Sf (Sunflower; 5 kg/ha) | damage to plants, Rg (Ryegrass [5]; 1 kg/ha) | damage to plants, Rg (Ryegrass [5]; 5 kg/ha) | damage to plants, Jm (Japanese millet; 1 kg/ha) | damage to plants, Jm (Japanese millet; 5 kg/ha) | damage to plants, Ip (Ipomea; 1 kg/ha) | damage to plants, Ip (Ipomea; 5 kg/ha) | damage to test plants, Ww (Winter wheat [6]) | damage to plants, Wh (Wheat; 1 kg/ha) | damage to plants, Wh (Wheat; 5 kg/ha) | damage to test plants, Sy (Soy bean [7]) | further results |
| --- | --- | --- | --- | --- | --- | --- | --- | --- | --- | --- | --- | --- | --- | --- | --- | --- | --- | --- | --- | --- | --- |
| COC(=O)C(C)Oc1ccc(N(C)c2ccc(Br)cc2[N+](=O)[O-])cc1 (centres unmarked) [Compound 30] | 0 (0 is 0 to 20% damage) | 0 (0 is 0 to 20% damage) | 0 (0 is 0 to 20% damage) | 0 (0 is 0 to 20% damage) | 1 | 2 | 0 (0 represents 0 to 25% damage) | 0 (0 represents 0 to 25% damage) | 0 (0 represents 0 to 25% damage) | 0 (0 represents 0 to 25% damage) | 3+ (3+ represents 100% kill) | 3+ (3+ represents 100% kill) | 3+ (3+ represents 100% kill) | 3+ (3+ represents 100% kill) | 0 (0 represents 0 to 25% damage) | 0 (0 represents 0 to 25% damage) | 4 | 2 | 3+ (3+ represents 100% kill) | 2 | damage to test plants, Sb (Sugar beet [8]): 0 (0 is 0 to 20% damage); damage to test plants, Ct (Cotton [9]): 0 (0 is 0 to 20% damage); damage to test plants, Ca (Chenopodium album): 0 (0 is 0 to 20% damage); damage to test plants, Ip (Ipomea purpurea): 0 (0 is 0 to 20% damage); damage to test plants, Am (Amaranthus retroflexus): 0 (0 is 0 to 20% damage); herbicidal damage, Rc (Rice): 5; damage to plants, Rg (Ryegrass [10]; 1 kg/ha): 1; damage to plants, Rg (Ryegrass [10]; 5 kg/ha): 3+ (3+ represents 100% kill) |
| C#CCN(c1ccc(OC(C)C(=O)OC)cc1)c1ccc(C(F)(F)F)cc1[N+](=O)[O-] (centres unmarked) [Compound 81] | 0 (0 is 0 to 20% damage) | 0 (0 is 0 to 20% damage) | 0 (0 is 0 to 20% damage) | 0 (0 is 0 to 20% damage) | 4 | 3 | 0 (0 represents 0 to 25% damage) | 0 (0 represents 0 to 25% damage) | 0 (0 represents 0 to 25% damage) | 0 (0 represents 0 to 25% damage) | 3 (3 represents 75 to 99% kill) | 3+ (3+ represents 100% kill) | 3+ (3+ represents 100% kill) | 3+ (3+ represents 100% kill) | 0 (0 represents 0 to 25% damage) | 0 (0 represents 0 to 25% damage) | 4 | 2 | 3 (3 represents 75 to 99% kill) | 0 (0 is 0 to 20% damage) | damage to test plants, Sb (Sugar beet [8]): 3; damage to test plants, Ct (Cotton [9]): 0 (0 is 0 to 20% damage); damage to test plants, Ca (Chenopodium album): 0 (0 is 0 to 20% damage); damage to test plants, Ip (Ipomea purpurea): 0 (0 is 0 to 20% damage); damage to test plants, Am (Amaranthus retroflexus): 0 (0 is 0 to 20% damage); herbicidal damage, Rc (Rice): 4; damage to plants, Rg (Ryegrass [10]; 1 kg/ha): 3 (3 represents 75 to 99% kill); damage to plants, Rg (Ryegrass [10]; 5 kg/ha): 3+ (3+ represents 100% kill) |
